Values quoted from earlier work, collected in article PMC7830118, “Synthesis and Biological Evaluation of ^99mTc(I) Tricarbonyl Complexes Dual-Targeted at Tumoral Mitochondria” (Molecules, 2021).

System: mitochondria fraction isolated from rat myocardium
Experimental: The ^99mTc-BBN complex accumulates to a low extent (0.19 to 0.24%) in mitochondria when compared with the TPP-containing complexes. […] The highest mitochondrial uptake (0.84 ± 0.06%) was found for the dual-targeted complex, ^99mTc-TPP-BBN, after 2 h of incubation. The measured uptakes are relative values that were obtained in the same manner and, therefore, reflect the mitotropic properties of each complex. However, it is worthwhile to mention that in these ...

## [99Tc].[C-]#[N+]CC(C)(C)OC.[C-]#[N+]CC(C)(C)OC.[C-]#[N+]CC(C)(C)OC.[C-]#[N+]CC(C)(C)OC.[C-]#[N+]CC(C)(C)OC.[C-]#[N+]CC(C)(C)OC [^99mTc-MIBI]
Correction with CCCP and malate dehydrogenase activity
  Mitochondrial uptake after correction for mitochondria in other cellular fractions: 68%
Mitochondria fraction isolated from rat myocardium
  Measured mitochondrial uptake (accumulation in the mitochondria fraction), uncorrected: 2.38%
